Experimental data reported in patent US20250255821A1, “SOLID DISPERSIONS COMPRISING A SGC STIMULATOR” (Cyclerion Therapeutics, Inc., priority 2015, published 2025).

Experiment: Solubility of Compound I in aqueous media
Type: physicochemical
Details: pH independent

- Solubility in aqueous media: low solubility
Compound: OC(CNc1nc(-c2cc(-c3ccon3)n(Cc3ccccc3F)n2)ncc1F)(C(F)(F)F)C(F)(F)F [Compound I, 1,1,1,3,3,3-hexafluoro-2-(((5-fluoro-2-(1-(2-fluorobenzyl)-5-(isoxazol-3-yl)-1H-pyrazol-3-yl)pyrimidin-4-yl)amino)methyl)propan-2-ol]
